The text below walks through data of patent US9493420B2, “Quinoline derivatives and uses thereof” (Portland State University, priority 2005, dated 2016).

Data set [1] can be described thus: Heme binding by UV-VIS spectrophotometric titration (association constant). As to conditions: similar methodologies as for RCQ_02. From the text: Optionally, heme binding of RCQ compounds can be determined by any method known in the art, including, for example, spectrophotometric methods, like UV-VIS spectroscopy or NMR spectroscopy. Methods of measuring heme binding to a variety of molecules using the UV-VIS spectrum have been described (see, e.g., Xu et al., J. Inorg. Biochem., 86 (2-3):617-625, 2001; Xu et al., Antimicrob. Agents Chemother., 46(1):144-150, 2002). Generally, a heme-binding compound (such as a disclosed RCQ) is mixed in increasing concentration with heme (or a heme model compound, such as porphyrin or metalloporphyrin) and the absorbance spectrum is measured from the ultraviolet region well into the visible region (from about 300 nm to about 750 nm). This spectral range includes the so-called Soret and Q-band regions that arise from porphyrin or metalloporphyrin absorbance. Upon interaction between a heme-binding compound and heme (or a heme model compound, such as porphyrin or metalloporphyrin), decreased absorbance in the Soret region is observed. […]
In particular examples, the formation of heme-RCQ complexes can be determined by UV-VIS spectrophotometric titration, using a variety of commercially available spectrophotometers (such as a Varian-Cary 3E spectrophotometer). […] Optionally, pH can be monitored throughout the procedure to ensure that it remains unchanged. […]

Data set [2] deals with W2 (CQ^R) P. falciparum strain. Nature of the data set: In vitro fluorescence (Sybr Green I) growth inhibition assay, W2 strain. Type of data set: cell-based. As to conditions: Plasmodium falciparum.
The subject of data set [3] is D6 (CQ^S) P. falciparum strain. Nature of the data set: In vitro fluorescence (Sybr Green I) growth inhibition assay, D6 strain. Type of data set: cell-based. Particulars: Plasmodium falciparum. The text has this: (§1) One exemplary method for measuring inhibitory effects of RCQ compound in vitro has been reported by Smilkstein et al. (Antimicrob. Agents Chemother., 48(5):1803-1806, 2004). This method employs fluorescent detection of the level of parasitemia in cultured red blood cells and can be automated for high-throughput screening of antimalarial RCQs. This exemplary method allows the inhibitory agent (such as a RCQ) to be in contact with the parasite for an entire developmental cycle without purine starvation, which is in contrast to the traditional ^3H-hypoxanthine method (Desjardins et al., Antimicrob. Agents Chemother., 16(6):710-718, 1979). Briefly, to perform the Smilkstein et al. method, an initial parasitemia of approximately 0.2% is attained by adding uninfected red blood cells (RBCs) to a stock culture of Plasmodium sp.-infected RBCs. […] After a period of incubation (such as about 72 hours), a sufficient amount (e.g., 100 μL) of a fluorescent DNA binding dye-detergent mixture (e.g., Sybr Green I dye-detergent mixture) to lyse cells and bind to DNA is added to the reactions. Because uninfected RBCs have no DNA, only parasite DNA (in infected RBCs) is available for binding to the fluorescent dye (e.g., Sybr Green I). Samples are then incubated in the dark for a period of time (e.g., one hour), followed by measurement of levels of fluorescence. For Sybr Green I, excitation and emission wavelength are 485 and 530 nm, respectively. Fluorescence readings, which represent the amount of parasite DNA in the sample, can be plotted against the Log [drug] and fit to a curve by nonlinear regression to obtain the IC50 value for the tested compound.
(§2) An in vitro fluorescence assay for determining IC50 of antimalarial drugs was performed as previously described by Smilkstein et al. (Antimicrob. Agents Chemother., 48(5):1803-1806, 2004). This relatively low-cost procedure can be automated for high-throughput screening of the antimalarial activities of RCQs described herein. Advantageous, this method also allows the tested agent (e.g, a RCQ) to be in contact with the parasite for an entire developmental cycle without purine starvation (which occurs with the commonly used ^3H-hypoxanthine method; see, e.g., Desjardins et al., Antimicrob. Agents Chemother., 16, (6):[…], 1979).
(§3) Briefly, an initial parasitemia of approximately 0.2% was attained by addition of uninfected red blood cells to a stock culture of cells infected with Dd2 (CQ^R) or D6 (CQ^S) P. falciparum strains. A 10 mM RCQ_02 solution (in DMSO) was prepared. RCQ_02 (at a final concentration from 10^−11 to 10^−4 M) and infected red blood cells (at a final concentration of 2% (v/v)) were mixed in 100 μL samples in individual wells of a 96-well plate. Each sample was prepared in triplicate. A triplicate set of reactions containing CQ (instead of RCQ_02) was included as a control. After a 72 hour incubation period, Sybr Green I dye-detergent mixture (100 μL) was added to each reaction. The samples were further incubated for an hour in the dark, and then placed in a 96-well fluorescence plate reader (Gemini-EM, […]) and analyzed with excitation and emission wavelength bands at 485 and 530 nm, respectively. Fluorescence readings were plotted against the Log [drug], and curve fitting performed by nonlinear regression to find the IC50 value.

The test system of data set [4] is mitogen-induced murine spleen lymphocytes. It is filed as cell-based. Particulars: LC50; mouse spleen lymphocytes; 72 hours + 24 hours resazurin. The protocol:
Mouse spleen lymphocytes were isolated from C57B1/6J mice by teasing tissues on a metallic sieve screen. […] Two hundred (200) μl isolated cells were then seeded in separate wells of a 96-well flat-bottom tissue culture plate at a density of 2×10^5 cells per well. […] After 72 hours incubation in a humidified atmosphere at 37° C. and 5% CO2, a solution of resazurin PBS was added to a final concentration 10 μM, and the plates were returned to the incubator for another 24 hours. Resazurin is a substrate which changes color in response to metabolic activity (such as, living cells). […] LC50 values were determined from plots of florescence versus drug concentration using non-linear regression by Prism software.

In data set [5] the test system is Dd2 (CQ^R) P. falciparum strain. The experiment in a line: In vitro fluorescence (Sybr Green I) growth inhibition assay, Dd2 strain. Type of data set: cell-based. Particulars: Plasmodium falciparum.
Excerpt: as §1, §2, §3

The subject of a further data set is P. falciparum strain Dd2. Particulars: cited from earlier work.
For a further data set, the system named is P. falciparum strain W2. As to conditions: cited from earlier work. Note: key: S = sensitive; R = resistant; S/R = intermediate level of resistance.
For another data set, the system named is P. falciparum strain 3D7. Particulars: cited from earlier work. Note: key: S = sensitive; R = resistant; S/R = intermediate level of resistance.
For data set [6] the following is noted: pH 5.7; Dorn et al., Xu et al.; cited from earlier work.
The test system of data set [7] is P. falciparum strain FCR3. Particulars: cited from earlier work. Note: key: S = sensitive; R = resistant; S/R = intermediate level of resistance.
The test system of another data set is P. falciparum strain D6. As to conditions: cited from earlier work. Note: key: S = sensitive; R = resistant; S/R = intermediate level of resistance.
Data set [8] has as its system P. falciparum strain TM91C235. Particulars: cited from earlier work. Note: key: S = sensitive; R = resistant; S/R = intermediate level of resistance.

The term IC50 denotes the concentration that inhibits the measured activity by half.

Read-outs that look alike come from different tables or passages of the source.
Throughout, for Drug susceptibility, strain Dd2: key: S = sensitive; R = resistant; S/R = intermediate level of resistance.

`Clc1ccc2c(NCCN3CCN(C(c4ccccc4)c4ccccc4)CC3)ccnc2c1` [RCQ_31]: the heme association constant in data set [1] came out at 500000 M⁻¹. In addition, the half-maximal inhibitory concentration (IC50) amounted to 4.3 nM in data set [2] (W2, Table 13, growth inhibition, read-out: IC50 (nM) W2 (CQ^R)); 1 nM in data set [3] (D6, Table 13, growth inhibition, read-out: IC50 (nM) D6 (CQ^S)); 3.6 nM in data set [5] (DD2, Table 13, growth inhibition, read-out: IC50 (nM) Dd2 (CQ^R)). Besides, the “Cytotoxicity” value in data set [4] is on record as 1900 nM.
`CCN(CC)CCCC(C)Nc1ccnc2cc(Cl)ccc12` (centres unmarked) [CQ, chloroquine]: in the data set on P. falciparum strain Dd2, the “Drug susceptibility, strain Dd2” value is recorded as “R”. Further, in the data set on P. falciparum strain W2, the “Drug susceptibility, strain W2” value is listed as “R”. The “Drug susceptibility, strain 3D7” value with P. falciparum strain 3D7 is on record as “S”. For the same compound, in [6], the “association constant reported for CQ.heme2” value is roughly 400000 M⁻¹. Moreover, the “Drug susceptibility, strain FCR3” value in data set [7] was “R”. In the data set on P. falciparum strain D6, the “Drug susceptibility, strain D6” value was “S”. Also, in data set [8], the “Drug susceptibility, strain TM91C235” value was “R”. Further, the IC50 amounted to 250 nM in data set [2] (W2, read-out: IC50 (nM) W2 (CQ^R)); 6.5 nM in data set [3] (D6, 72 h); 6.9 nM in data set [3] (D6, read-out: IC50 (nM) D6 (CQ^S)); 102 nM in data set [5] (DD2, 72 h); 102 nM in data set [5] (DD2, read-out: IC50 (nM) Dd2 (CQ^R)).
